Values quoted from earlier work in patent US20090181086A1 (priority 2008, published 2009).
Read-outs that look alike come from different tables or passages of the source.

Tests used:
platelet MAO-B = platelet MAO-B (Homo sapiens, UniProt P27338)
[1] = test system: monoamine oxidase type B (MAO-B); details: ex vivo, brain, liver and intestinal tissues
human albumin = human albumin (Homo sapiens, UniProt P02768); details: concentration range of 1-100 ng/mL
CYP1A2 = CYP1A2 (Homo sapiens, UniProt P05177); details: in vitro
[2] = oral 14C-labeled rasagiline, over 7 days

platelet MAO-B, sequence (P27338 whole entry): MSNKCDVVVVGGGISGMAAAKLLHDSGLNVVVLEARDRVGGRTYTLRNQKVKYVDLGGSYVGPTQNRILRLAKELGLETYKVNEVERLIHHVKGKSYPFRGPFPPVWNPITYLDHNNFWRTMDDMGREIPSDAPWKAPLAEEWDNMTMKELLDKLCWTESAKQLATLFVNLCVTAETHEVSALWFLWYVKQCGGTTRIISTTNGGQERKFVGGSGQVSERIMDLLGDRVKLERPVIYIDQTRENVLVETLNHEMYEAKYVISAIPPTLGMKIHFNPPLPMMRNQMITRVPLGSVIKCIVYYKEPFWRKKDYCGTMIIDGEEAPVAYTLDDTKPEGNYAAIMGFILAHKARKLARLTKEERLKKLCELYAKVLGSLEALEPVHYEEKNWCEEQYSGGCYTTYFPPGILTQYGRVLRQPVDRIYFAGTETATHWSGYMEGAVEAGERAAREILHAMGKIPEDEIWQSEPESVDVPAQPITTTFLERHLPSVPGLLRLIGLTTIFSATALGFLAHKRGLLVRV
human albumin, sequence (P02768 25-609): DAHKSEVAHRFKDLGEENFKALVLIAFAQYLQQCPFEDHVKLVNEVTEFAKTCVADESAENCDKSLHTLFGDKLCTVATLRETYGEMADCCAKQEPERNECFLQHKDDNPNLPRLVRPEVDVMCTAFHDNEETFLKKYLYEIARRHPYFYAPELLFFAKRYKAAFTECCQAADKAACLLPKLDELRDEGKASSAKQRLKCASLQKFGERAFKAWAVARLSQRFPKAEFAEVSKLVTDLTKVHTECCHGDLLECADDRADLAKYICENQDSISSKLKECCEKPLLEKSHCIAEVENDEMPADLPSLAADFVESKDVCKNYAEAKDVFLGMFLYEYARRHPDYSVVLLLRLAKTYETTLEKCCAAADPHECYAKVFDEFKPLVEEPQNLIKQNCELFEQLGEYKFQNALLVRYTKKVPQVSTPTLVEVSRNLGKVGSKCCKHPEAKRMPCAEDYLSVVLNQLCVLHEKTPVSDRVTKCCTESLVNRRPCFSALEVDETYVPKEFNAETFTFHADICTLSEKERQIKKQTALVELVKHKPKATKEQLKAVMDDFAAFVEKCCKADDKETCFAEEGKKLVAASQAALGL
CYP1A2, sequence (P05177 whole entry, species assumed): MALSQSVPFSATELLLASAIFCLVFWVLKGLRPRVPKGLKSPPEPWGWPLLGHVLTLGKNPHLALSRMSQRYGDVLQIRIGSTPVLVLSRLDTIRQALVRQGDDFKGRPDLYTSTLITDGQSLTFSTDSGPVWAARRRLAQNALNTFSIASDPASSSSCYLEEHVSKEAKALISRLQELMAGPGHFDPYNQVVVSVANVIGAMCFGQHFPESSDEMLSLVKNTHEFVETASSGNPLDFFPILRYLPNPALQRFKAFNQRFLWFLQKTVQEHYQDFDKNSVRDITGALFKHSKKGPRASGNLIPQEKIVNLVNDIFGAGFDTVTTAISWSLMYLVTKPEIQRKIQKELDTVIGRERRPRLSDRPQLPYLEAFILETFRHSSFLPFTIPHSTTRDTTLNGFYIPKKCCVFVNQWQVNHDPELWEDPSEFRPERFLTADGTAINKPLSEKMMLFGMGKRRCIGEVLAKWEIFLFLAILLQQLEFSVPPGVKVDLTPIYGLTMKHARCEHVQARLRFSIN

Compound: C#CCN[C@@H]1CCc2ccccc21 [rasagiline, R(+)-N-propargyl-1-aminoindan]
- MAO-B inhibition (platelet MAO-B; 3 days after daily dosing at 2 mg/day, maintained 3 days post-dose): Over 90%
- MAO-B inhibition (platelet MAO-B; after a single rasagiline dose of 1 mg/day): 25-35%
- MAO-B inhibition (platelet MAO-B; after a single rasagiline dose of 2 mg/day): more than 55%
- duration of platelet MAO-B inhibition after last dose (platelet MAO-B; human, in vivo): at least 1 week
- MAO-B inhibition, in words (platelet MAO-B; multiple doses of 0.5, 1 and 2 mg per day): complete MAO-B inhibition
- MAO-B inhibition in platelets, in words (platelet MAO-B; recommended therapeutic dose): potent and irreversible inhibitor of MAO-B
- MAO-B inhibition, in words [1]: potent, irreversible monoamine oxidase type B (MAO-B) selective inhibitor
- mean extent of binding to human albumin (human albumin): 61-63%
- isoenzyme involved in rasagiline metabolism, in words (CYP1A2): CYP1A2 being the major isoenzyme involved
- pharmacokinetics versus dose, in words (doses over the range of 1-10 mg): linear
- absolute bioavailability (human, in vivo): about 36%
- effect of food on Tmax, in words (human, in vivo): does not affect
- excreted as unchanged drug in urine (human, in vivo): Less than 1%
- mean steady-state half life (human, in vivo): 3 h
- mean volume of distribution at steady-state (human, in vivo): 87 L
- elimination via feces [2]: 7 % of total dose
- elimination via urine [2]: 62 % of total dose
- total calculated recovery (oral 14C-labeled rasagiline, over a period of 38 days): 84 % of the dose
- decrease of Cmax (taken with a high fat meal): approximately 60%
- decrease of exposure (AUC) (taken with a high fat meal): ~20%
- Plasma protein binding (plasma protein): 88-94%
